Like-named read-outs stand apart in the source and are kept apart here.
Tests used:
[1] = test system: C2C12 myotubes
[2] = test system: mtOXPHOS transcripts; assay type: cell-based, mouse
[3] = test system: cellular dehydrogenase activity
[4] = test system: OXPHOS gene expression; assay type: cell-based, mouse
[5] = test system: nuOXPHOS transcripts; assay type: cell-based, mouse
[6] = test system: reactive oxygen species; assay type: cell-based, mouse
[7] = test system: mitochondrial membrane potential; assay type: cell-based, mouse
[8] = test system: cytochrome c; assay type: cell-based, mouse
[9] = Table 4, C2C12 myotubes, 48 h, composite Z-score
[10] = composite Z-score vs DMSO, Conc 20 μM
[11] = Table 4, C2C12 myotubes, 48 h, JC-1, composite Z-score
[12] = normalized composite Z-score vs mock-treated (DMSO) wells, Conc 20 μM
[13] = composite Z-score vs DMSO wells, Conc 20 μM
[14] = Conc 20 μM, normalized score vs mock-treated (DMSO) wells

**Q.** With `COc1cc2c(cc1OC)[C@@H]1C(=O)c3ccc4c(c3O[C@@H]1CO2)CC(C(C)C)O4` (stereo partly drawn) [beta-dihydrorotenone, reference compound] as the compound, how does the Viability [1, 9] read?
**A.** −0.184

**Q.** What about the Viability [1, 10] of the same compound?
**A.** −0.184

**Q.** What about the mitoOX [2, 10] of the same compound?
**A.** −0.695

**Q.** And the MTT [3, 9]?
**A.** −2.771

**Q.** What about the MTT [3, 10] of the same compound?
**A.** −2.771

**Q.** And the GE-HTS [4, 10]?
**A.** −0.818

**Q.** What about the nucOX [5, 10] of the same compound?
**A.** −0.828

**Q.** And the ROS [6, 9]?
**A.** 0.122

**Q.** What about the ROS [6, 10] of the same compound?
**A.** 0.122

**Q.** And the ΔΨm [7, 11]?
**A.** 1.079

**Q.** What about the ΔΨm [7, 10] of the same compound?
**A.** 1.079

**Q.** What about the cyt c [8, 10] of the same compound?
**A.** −0.408

**Q.** For `COc1cc2c(cc1OC)C1C(=O)c3c(cc4c(c3O)C=CC(C)(C)O4)OC1CO2` (stereo not drawn) [beta-toxicarol, reference compound], which Viability [1, 9] is on record?
**A.** 0.672

**Q.** What about the Viability [1, 12] of the same compound?
**A.** 0.672

**Q.** And the mitoOX [2, 12]?
**A.** −0.627

**Q.** What about the MTT [3, 9] of the same compound?
**A.** −1.498

**Q.** And the MTT [3, 12]?
**A.** −1.498

**Q.** And the GE-HTS [4, 12]?
**A.** −1.508

**Q.** And the nucOX [5, 12]?
**A.** −1.773

**Q.** And the ROS [6, 9]?
**A.** −0.188

**Q.** And the ROS [6, 12]?
**A.** −0.188

**Q.** What about the ΔΨm [7, 11] of the same compound?
**A.** 0.899

**Q.** And the ΔΨm [7, 12]?
**A.** 0.899

**Q.** What about the cyt c [8, 12] of the same compound?
**A.** −0.239

**Q.** `CNCCc1ccccn1` [betahistine] was tested. Which Viability [1, 13] did it give?
**A.** 1.068

**Q.** What about the mitoOX [2, 13] of the same compound?
**A.** −0.718

**Q.** What about the MTT [3, 13] of the same compound?
**A.** 0.861

**Q.** What about the GE-HTS [4, 13] of the same compound?
**A.** −0.284

**Q.** And the nucOX [5, 13]?
**A.** −0.008

**Q.** And the ROS [6, 13]?
**A.** −0.176

**Q.** And the ΔΨm [7, 13]?
**A.** 0.125

**Q.** And the cyt c [8]?
**A.** 0.296

**Q.** What about the cyt c [8, 13] of the same compound?
**A.** 0.386

**Q.** With `C[N+](C)(C)CC(=O)O` [betaine] as the compound, how does the Viability [1] read?
**A.** 0.548

**Q.** What about the mitoOX [2] of the same compound?
**A.** 0.604

**Q.** And the MTT [3]?
**A.** 1.036

**Q.** What about the GE-HTS [4] of the same compound?
**A.** 0.478

**Q.** And the nucOX [5]?
**A.** 0.354

**Q.** What about the ROS [6] of the same compound?
**A.** −0.348

**Q.** What about the ΔΨm [7] of the same compound?
**A.** 0.345

**Q.** And the cyt c [8]?
**A.** −0.998

**Q.** With `C[C@H]1C[C@H]2[C@@H]3CCC4=CC(=O)C=C[C@]4(C)[C@@]3(F)[C@@H](O)C[C@]2(C)[C@@]1(O)C(=O)CO` [betamethasone] as the compound, how does the “Viability (composite Z-score)” value [1] read?
**A.** −0.984

**Q.** What about the “mitoOX (composite Z-score)” value [2] of the same compound?
**A.** 0.853

**Q.** And the “MTT (composite Z-score)” value [3]?
**A.** −1.063

**Q.** What about the “GE-HTS (composite Z-score)” value [4] of the same compound?
**A.** 0.740

**Q.** And the “nucOX (composite Z-score)” value [5]?
**A.** 0.633

**Q.** And the “ROS (composite Z-score)” value [6]?
**A.** 0.541

**Q.** And the “ΔΨm (composite Z-score)” value [7]?
**A.** 0.849

**Q.** What about the “cyt c (composite Z-score)” value [8] of the same compound?
**A.** 0.130

**Q.** Which results are given for `C=C(C)[C@@H]1CC[C@]2(C(=O)O)CC[C@]3(C)[C@H](CC[C@@H]4[C@@]5(C)CC[C@H](O)C(C)(C)[C@@H]5CC[C@]43C)[C@@H]12` [betulinic acid]?
**A.** Viability [1, 10]: 0.850; mitoOX [2, 10]: 0.259; MTT [3, 10]: −2.381; GE-HTS [4, 10]: 0.145; nucOX [5, 10]: 0.069; ROS [6, 10]: 0.202; ΔΨm [7, 10]: −1.220; cyt c [8, 10]: 0.481

**Q.** `C=CC1=C(C)/C(=C/c2[nH]c(Cc3[nH]c(/C=C4\NC(=O)C(C)=C4C=C)c(C)c3CCC(=O)O)c(CCC(=O)O)c2C)NC1=O` [bilirubin] was tested. Which “Viability (composite Z-score)” value [1, 14] did it give?
**A.** −0.649

**Q.** And the “mitoOX (composite Z-score)” value [2, 14]?
**A.** 0.427

**Q.** And the “MTT (composite Z-score)” value [3, 14]?
**A.** −1.287

**Q.** And the “GE-HTS (composite Z-score)” value [4, 14]?
**A.** 0.312

**Q.** And the “nucOX (composite Z-score)” value [5, 14]?
**A.** 0.250

**Q.** And the “ROS (composite Z-score)” value [6, 14]?
**A.** 0.249

**Q.** And the “ΔΨm (composite Z-score)” value [7, 14]?
**A.** −1.837

**Q.** And the “cyt c (composite Z-score)” value [8, 14]?
**A.** 1.004

**Q.** `COc1ccc(-c2coc3cc(O)cc(O)c3c2=O)cc1` [biochanin A] was tested. Which “Viability (composite Z-score)” value [1, 14] did it give?
**A.** 0.987

**Q.** What about the “mitoOX (composite Z-score)” value [2, 14] of the same compound?
**A.** −0.042

**Q.** And the “MTT (composite Z-score)” value [3, 14]?
**A.** −0.325

**Q.** What about the “GE-HTS (composite Z-score)” value [4, 14] of the same compound?
**A.** −0.324

**Q.** And the “nucOX (composite Z-score)” value [5, 14]?
**A.** −0.459

**Q.** What about the “ROS (composite Z-score)” value [6, 14] of the same compound?
**A.** 0.623

**Q.** And the “ΔΨm (composite Z-score)” value [7, 14]?
**A.** 0.033

**Q.** What about the “cyt c (composite Z-score)” value [8, 14] of the same compound?
**A.** −0.416

**Q.** With `OC(CCN1CCCCC1)(c1ccccc1)C1CC2C=CC1C2` (stereo not shown) [biperiden] as the compound, how does the Viability [1] read?
**A.** 0.740

**Q.** And the mitoOX [2]?
**A.** −1.312

**Q.** And the MTT [3]?
**A.** −0.886

**Q.** What about the GE-HTS [4] of the same compound?
**A.** −0.817

**Q.** What about the nucOX [5] of the same compound?
**A.** −0.496

**Q.** And the ROS [6]?
**A.** 2.725

**Q.** What about the ΔΨm [7] of the same compound?
**A.** −0.517

**Q.** What about the cyt c [8] of the same compound?
**A.** 0.053

**Q.** `CC(C)=CCC[C@](C)(O)C1CC=C(C)CC1` (stereo partly shown) [bisabolol] was tested. Which Viability [1, 10] did it give?
**A.** 0.300

**Q.** What about the mitoOX [2, 10] of the same compound?
**A.** −0.690

**Q.** What about the MTT [3, 10] of the same compound?
**A.** 0.031

**Q.** And the GE-HTS [4, 10]?
**A.** −0.963

**Q.** And the nucOX [5, 10]?
**A.** −0.983

**Q.** What about the ROS [6, 10] of the same compound?
**A.** 0.061

**Q.** And the ΔΨm [7, 10]?
**A.** −0.234

**Q.** And the cyt c [8, 10]?
**A.** 0.738

**Q.** What does the source list for `CCc1ccc2c(O)c3c(cc2c1C(=O)OC)C(=O)c1c(O)ccc(O)c1C3=O` [bisanhydrorutilantinone]?
**A.** Viability [1, 10]: −0.493; mitoOX [2, 10]: −1.532; MTT [3, 10]: −1.755; GE-HTS [4, 10]: −0.727; nucOX [5, 10]: −0.268; ROS [6, 10]: 0.236; ΔΨm [7, 10]: −2.223; cyt c [8, 10]: 0.148
